Results taken from US7879835B2 (Korea Research Institute of Chemical Technology, priority 2004, dated 2011).

Assays:
[1] = tested on: osteoclast (TRAP-positive multinuclear cell) formation; test: Inhibitory effect on osteoclast formation (TRAP staining); assay type: cell-based, mice; details: compared to control; for inhibition at 0.1 µM / inhibition at 0.3 µM / inhibition at 1 µM / inhibition at 3 µM: Mus musculus, Osteoclast, read-out: Osteoclast formation inhibitory effects (%); for inhibition at 0.1 µM: 0.1 μM (Table 4b); for inhibition at 0.3 µM: 0.3 μM (Table 4b); for inhibition at 1 µM: 1 μM (Table 4b); for inhibition at 3 µM: 3 μM (Table 4b); for Osteoclast formation inhibitory effects (%): 8 days culture with M-CSF and RANKL
Procedure: The inhibitory activities of the alpha-arylmethoxyacrylate derivatives prepared in the above Examples on the proliferation of osteoclasts were examined as follows.
First, a bone marrow sample containing osteoclast pregenitor cells was isolated as follows. After sacrificing 7 to 9 week-old female mice by cervical dislocation, femur and tibia were excised aseptically while removing soft tissues attached thereto, After cutting both ends of the long bones, 1 ml of an enzyme solution containing 0.1% collagenase (Gibco), 0.05% trypsin and 0.5 mM EDTA (Gibco) was injected into the bone marrow cavity at one end using a syringe with a 26-gauge needle, and the bone marrow was then collected. After stirring the recovered bone marrow for 30 min, the precipitated bone marrow cells were collected, and cultured in α-minimum essential medium (α-MEM) supplemented with 10% FBS for 24 hrs. Then, non-adherent cells, which are osteoclast pregenitors, were aliquoted onto a culture plate at a density of 2×10^5 cells per well, and cultured for 8 days in α-MEM supplemented with 20 ng/ml of macrophage-colony stimulating factor (M-CSF, Peprotech, USA), 30 ng/ml RANKL (Peprotech, USA), and 0.3, 1.0 or 3 μM of the compounds of the Examples. Control cells were cultured at the same condition except not adding the compounds of the Examples.
After cell culture for 8 days, the adherent cells were washed with PBS and fixed with citrate-acetate-formaldehyde for 5 min. The fixed cells were incubated at 37° C. for 1 hr in acetate buffer (pH 5.0) containing naphthol AS-BI phosphate, fast Garnet GBC solution and 7 mM tartrate buffer (pH 5.0) to conduct TRAP (tartrate-resistant acid phosphatase) staining.

[2] = tested on: osteoclasts; test: Inhibitory effect on resorption activity of osteoclast (resorption pit area on calcium phosphate-coated plate); assay type: cell-based, mice; details: compared to control
Procedure: After finishing culture, the plate was washed with distilled water, and 50 μl/well of 5% sodium hypochlorite was added to the plate. The plate was let alone for 5 min, washed again with distilled water to remove the adherent cells, and dried at room temperature. Then, the area of formed resorption pits was calculated by means of Image Pro Plus software (Media Cybernetics Ver. 3.0).

SMILES	inhibition at 0.1 µM [1]	inhibition at 0.3 µM [1]	inhibition at 1 µM [1]	inhibition at 3 µM [1]	Osteoclast formation inhibitory effects (%) ([1]; 0.3 μM)	Osteoclast formation inhibitory effects (%) ([1]; 1.0 μM)	Osteoclast formation inhibitory effects (%) ([1]; 3.0 μM)	Reduction (%) of the resorption pit area of osteoclasts ([2]; 0.3 uM)	Reduction (%) of the resorption pit area of osteoclasts ([2]; 1 uM)	Reduction (%) of the resorption pit area of osteoclasts ([2]; 3 uM)
CO/C=C(/C(=O)OC)c1ccccc1COc1ccc(NCC(C)C)cc1F [Compound No. 425, (E)-methyl-2-[2-((4-(N-isobutylamino)-2-fluorophenoxy)methyl)phenyl]-3-methoxyacrylate]	0%	51%	100%	100%						
CO/C=C(/C(=O)OC)c1ccccc1COc1ccc(C(C)F)cc1 (stereo not shown) [compound 170]					81%	100%	100%	0%	100%	100%
CO/C=C(/C(=O)OC)c1ccccc1COc1ccc(OC2CCCC2)cc1 [compound 172]					90%	100%	100%	90%	100%	100%
CO/C=C(/C(=O)OC)c1ccccc1COc1ccc(OCC(C)C)cc1 [compound 174]					35%	100%	100%	100%	100%	100%
CCC(C)Oc1ccc(OCc2ccccc2/C(=C\OC)C(=O)OC)cc1 (stereo not shown) [compound 175]					14%	100%	100%	99%	100%	100%
C=CCCOc1ccc(OCc2ccccc2/C(=C\OC)C(=O)OC)cc1 [compound 178]					89%	100%	100%	97%	100%	100%
CCOc1ccc(OCc2ccccc2/C(=C\OC)C(=O)OC)cc1 [compound 183]					96%	100%	100%	100%	100%	100%
CCCOc1ccc(OCc2ccccc2/C(=C\OC)C(=O)OC)cc1 [compound 192]					68%	100%	100%	100%	100%	100%
CCCCCCCOc1cccc(OCc2ccccc2/C(=C\OC)C(=O)OC)c1 [compound 201]					12%	70%	100%	100%	100%	100%
CCCCCCCCc1cccc(OCc2ccccc2/C(=C\OC)C(=O)OC)c1 [compound 229]					100%	100%	100%	0.00%	100%	100%
CO/C=C(/C(=O)OC)c1ccc(Cl)cc1COc1cccc(CO)c1 [compound 262]					93%	100%	100%	93%	100%	100%
CO/C=C(/C(=O)OC)c1ccccc1COc1cccc(N2CCOCC2)n1 [compound 348]		24%	99%	100%						
CO/C=C(/C(=O)OC)c1ccccc1COc1cccc(N2CCOCC2)c1 [compound 349]	2%	53%	100%	100%						
CO/C=C(/C(=O)OC)c1ccccc1COc1ccc(NCC(C)C)cc1 [compound 361]			95%	100%						
C=CCN(CC=C)c1ccc(OCc2ccccc2/C(=C\OC)C(=O)OC)cc1F [compound 367]			87%	100%						
CO/C=C(/C(=O)OC)c1ccccc1COc1ccc(NCC2CC2)c(F)c1 [compound 372]			91%	100%						
CO/C=C(/C(=O)OC)c1ccccc1COc1cccc(NC2CCCC2)c1 [compound 380]		8%	51%	100%						

SMILES	inhibition at 0.1 µM [1]	inhibition at 0.3 µM [1]	inhibition at 1 µM [1]	inhibition at 3 µM [1]	Osteoclast formation inhibitory effects (%) ([1]; 0.3 μM)	Osteoclast formation inhibitory effects (%) ([1]; 1.0 μM)	Osteoclast formation inhibitory effects (%) ([1]; 3.0 μM)	Reduction (%) of the resorption pit area of osteoclasts ([2]; 0.3 uM)	Reduction (%) of the resorption pit area of osteoclasts ([2]; 1 uM)	Reduction (%) of the resorption pit area of osteoclasts ([2]; 3 uM)
C=CCNc1cccc(OCc2ccccc2/C(=C\OC)C(=O)OC)c1 [compound 381]		5%	67%	100%						
CO/C=C(/C(=O)OC)c1ccccc1COc1cccc(NCCC(C)C)c1 [compound 383]		6%	94%	100%						
CO/C=C(/C(=O)OC)c1ccc(Cl)cc1COc1cccc(N2CCCCC2)c1 [compound 387]	1%	100%	100%	100%						
CO/C=C(/C(=O)OC)c1ccc(Cl)cc1COc1cccc(N(C)c2ccccc2)c1 [compound 390]	2%	94%	99%	100%						
CO/C=C(/C(=O)OC)c1ccccc1COc1cccc(N2CCCC2)c1 [compound 392]		2%	95%	100%						
CO/C=C(/C(=O)OC)c1ccccc1COc1ccc(N2CCCC2)cn1 [compound 397]		22%	100%	100%						
CO/C=C(/C(=O)OC)c1ccccc1COc1ccc(N(C)c2ccccc2)cc1 [compound 400]	0%	53%	99%	100%						
CO/C=C(/C(=O)OC)c1ccccc1COc1cccc(N2CCN(C(=O)OC(C)(C)C)CC2)c1 [compound 406]	41%	100%	100%	100%						
CO/C=C(/C(=O)OC)c1ccccc1COc1ccc(N2CCOCC2)cc1F [compound 408]	0%	52%	100%	100%						
CO/C=C(/C(=O)OC)c1ccccc1COc1cccc(N2CCCCC2)n1 [compound 413]		11%	100%	100%						
CO/C=C(/C(=O)OC)c1ccccc1COc1cccc(N(C)c2ccccc2)n1 [compound 414]		32%	100%	100%						
CO/C=C(/C(=O)OC)c1ccccc1COc1ccc(N(C)c2ccccc2)c(F)c1 [compound 417]		24%	97%	100%						
CO/C=C(/C(=O)OC)c1ccccc1COc1ccc(N2CCCC2)c(F)c1 [compound 418]		11%	81%	100%						
C=CCN(CC=C)c1ccc(OCc2ccccc2/C(=C\OC)C(=O)OC)c(F)c1 [compound 421]		14%	100%	100%						
CO/C=C(/C(=O)OC)c1ccccc1COc1ccc(N(CC2CC2)CC2CC2)cc1F [compound 422]	11%	98%	100%	100%						
CO/C=C(/C(=O)OC)c1ccccc1COc1ccc(NCC2CC2)cc1F [compound 423]	0%	51%	100%	100%						
CO/C=C(/C(=O)OC)c1ccccc1COc1ccc(N(C)CC2CC2)cc1F [compound 424]	0%	92%	100%	100%						
